In patent US20160318856A1, “Substituted Urea eIF2alpha Kinase Activators” (THE BRIGHAM AND WOMEN'S HOSPITAL, INC., priority 2013, published 2016):

Assays:
Assay type in all cases: cell-based
[1] = test system: BAF-3; assay: cell proliferation assay, BAF-3; conditions: Mus musculus, BaF3; BAF-3, Leukemia
Method: (§1) Cells were seeded in 96-well plates and maintained for 5 days in the presence of 0.5 to 20 μM of individual compound, and cell proliferation was measured by the sulforhodamine B (SRB) assay as described previously (see, for example, Palakurthi, S. S. et al. Cancer Research 2000, 60(11), 2919-2925). Briefly, at the end of a 5-day treatment, cells were fixed in 10% cold trichloroacetic acid. Cell number was estimated by measuring the remaining bound dye of sulforhodamine B after washing. The percentage of growth was calculated by using the equation: 100×[(T−T0)/(C−T0)], where T and C represent the absorbance in treated and control cultures at Day 5, and T0 at time zero, respectively. If T is less than T0, cell death has occurred and can be calculated from 100×[(T−T0)/T0].

[2] = test system: CaSki; assay: cell proliferation assay, CaSki; conditions: Homo sapiens, Ca-Ski, Cervix
Method: as §1

[3] = test system: PC-3; assay: cell proliferation assay, PC-3; conditions: Homo sapiens; PC-3, Prostate
Method: as §1

[4] = test system: CRL-2813 human melanoma cancer cells transfected with HRI-targeting or non-targeting siRNA; assay: cell proliferation (SRB) assay after HRI knockdown; conditions: CRL-2813 cells, FIG. 10
Method: as §1
Cell proliferation is a meaningful read-out for determining the specificity of a compound as it captures both on-target and off-target effects of the compound under study. […] If these compounds specifically activate HRI and this activity is required for the inhibition of cell proliferation, then reducing the expression of HRI should blunt their effect on cell proliferation. For this purpose, expression of HRI was knocked down in CRL-2813 human melanoma (about 70% knockdown efficiency) and MCF-7 human breast cancer cells (about 90% knockdown efficiency). These two cell lines were chosen because the HRI knockdown efficiency is lower in CRL-2813 than in MCF-7 cells providing a sort of dose-response data that correlates knockdown efficiency with the resistance of cells to inhibition of cell proliferation. […] Referring to FIG. 5A, CRL-2813 human melanoma cancer cells, and (FIG. 5B) MCF-7 human breast cancer cells were transfected with HRI targeted or non-targeted siRNA, treated with the indicated concentrations of I-6p and cell proliferation was measured by SRB assay. Calculated IC50 for all four compounds tested in CRL-2813 human melanoma cancer cells and MCF-7 human breast cancer cells transfected with non-target siRNA control (NTC) or HRI is shown in FIG. 5C and FIG. 5D, respectively. The experiment was conducted in triplicate and each experiment was independently performed three times. Data are shown as Mean±S.E.M. *NTC=non-target siRNA control.
Referring to FIG. 8, CRL-2813 human melanoma cancer cells were transfected with HRI targeted or non-targeted siRNA, treated with the indicated concentrations of (A) I-14, (B) I-15, (C) III-4 and (D) III-5 and cell proliferation was measured by SRB assay. Calculated IC50 for all four compounds tested in CRL-2813 human melanoma cancer cells transfected with non-target siRNA control (NTC) or HRI is shown in (E). The experiment was conducted in triplicate and each experiment was independently performed three times. Data are shown as Mean±S.E.M. *NTC=non-target siRNA control, IC50=effective dose of drug that inhibit cell proliferation by 50%.
In general, if the affinity of compounds for their molecular target is increased this should result in higher specificity of the compounds in the cell proliferation assay. […] These five compounds, two with average and three with high potency, were tested in cell proliferation assay using CRL-2813 cells transfected with non-targeted siRNA or HRI-targeted siRNA as described above.

O=C(Nc1cccc(C(F)(F)F)c1)NC1CCC(Oc2ccc(OC(F)(F)F)cc2)CC1 (stereo not shown) [Compound I-17, 1-(4-(4-(trifluoromethoxy)phenoxy)cyclohexyl)-3-(3-(trifluoromethyl)phenyl)urea]
IC50 [1]: 800 nM | IC50 [2]: 2800 nM | IC50 [3]: 2900 nM | fold higher IC50 values in cells transfected with HRI-targeting siRNA vs. non-targeting siRNA [4]: ~6 fold
